Where two headings read alike, the source gives them in different places.
System: Tetranychus cinnabarinus
Assay: Activity test of Tetranychus cinnabarinus (spray on inoculated bean seedlings, mortality after 72 hours)
Assay type: in vivo
Conditions: for pest or weed control at 6.25 ppm: 6.25 ppm (6.25 mg/L); for pest or weed control at 6.25 ppm / pest or weed control at 25 ppm / pest or weed control at 100 ppm: whole plant sprayed, 72 hours, read-out: lethal rate against mites; for pest or weed control at 25 ppm: 25 ppm (25 mg/L); for pest or weed control at 100 ppm: 100 ppm (100 mg/L)
Experimental: Activity Test of Tetranychus cinnabarinus
The compound under test was dissolved in acetone and diluted to desired concentration with 0.1% Tween 80 solution with acetone content not exceeding 5%.
One true leaf was removed from the bean seedlings having two true leaves. Tanyanychus cinarinus was inoculated and the cardinal number thereof investigated. The whole plant was sprayed with a handheld sprayer, and each treatment was repeated for 3 times. After treatment, the bean seedlings were cultured in a constant temperature room. 72 hours later, the number of live mites was investigated and the mortality rate was calculated. The number of Tetranychus cinnabarinus was 100-200 per inoculation. Mortality=(number of inoculated mites−number of live mites after treatment)[…]×100%.

[1] = Concentration 3.12 ppm, acaricidal parallel test with bifenazate and cyflumetofen, read-out: Mortality %

SMILES | pest or weed control at 6.25 ppm | pest or weed control at 25 ppm | pest or weed control at 100 ppm | mortality at 3.12 ppm [1] | mortality at 3.12 ppm
COC(=O)c1ccccc1CNc1cc(SCC(F)(F)F)c(Cl)cc1F [Compound 1202, 2-((((4-chloro-2-fluoro-5-((2,2,2-trifluoroethyl)thio)phenyl)amino)methyl) benzoate] | > 90% | > 90% | > 90% | 97% | –
COC(=O)c1ccccc1CNc1cc([S+]([O-])CC(F)(F)F)c(Cl)cc1F (centres unmarked) [Compound 1203] | > 90% | > 90% | > 90% | 98% | –
COC(=O)c1cc(F)ccc1CNc1cc(SCC(F)(F)F)c(Cl)cc1F [Compound 1165] | > 90% | > 90% | > 90% | 99% | –
COC(=O)c1ccccc1CNc1cc(SCC(F)(F)F)c(C)cc1F [Compound 53] | > 90% | > 90% | > 90% | 99% | –
Cc1cc(F)c(NCc2cccc(F)c2)cc1SCC(F)(F)F [Compound 229, 2-fluoro-N-(3-fluorobenzyl)-4-methyl-5-((2,2,2-trifluoroethyl)thio) aniline] | – | – | > 90% | – | –
COc1ccc(-c2ccccc2)cc1NNC(=O)OC(C)C [Bifenazate, bifenazate, reference compound] | – | – | – | – | 85%
Cc1cc(F)c(NCc2ccc(Cl)c(Cl)c2)cc1SCC(F)(F)F [Compound 247] | – | – | > 90% | – | –
COC(=O)c1cc(F)ccc1CNc1cc([S+]([O-])CC(F)(F)F)c(C)cc1F (centres unmarked) [Compound 304] | > 90% | > 90% | > 90% | 98% | –
Cc1cc(F)c(NCc2ccc(Cl)c(F)c2)cc1SCC(F)(F)F [Compound 249, N-(4-chloro-3-fluorobenzyl)-2-fluoro-4-methyl-5-((2,2,2-trifluoroethyl)thio) aniline] | – | – | > 90% | – | –
COC(=O)c1ccccc1CNc1cc([S+]([O-])CC(F)(F)F)c(C)cc1F (centres unmarked) [Compound 54] | > 90% | > 90% | > 90% | 100% | –
COCCOC(=O)C(C#N)(C(=O)c1ccccc1C(F)(F)F)c1ccc(C(C)(C)C)cc1 (centres unmarked) [Cyflumetofen, cyflumetofen, reference compound] | – | – | – | – | 72%
Cc1cc(F)c(NCc2ccccc2C#N)cc1SCC(F)(F)F [Compound 33] | – | – | > 90% | – | –
COC(=O)c1cc(F)ccc1CNc1cc([S+]([O-])CC(F)(F)F)c(Cl)cc1F (centres unmarked) [Compound 1166] | > 90% | > 90% | > 90% | 98% | –
COC(=O)c1cc(F)ccc1CNc1cc(SCC(F)(F)F)c(C)cc1F [Compound 303, 5-Fluoro-2-((((2-Fluoro-4-methyl-5-(2,2,2-trifluoroethyl)thio)phenyl)amino)methyl) benzoate] | > 90% | > 90% | > 90% | 99% | –

— patent US12419304B2, “Aryl sulfide comprising benzylamine, synthesis method and application thereof” (Shandong Kangqiao Bio-Technology Co., Ltd., priority 2019, dated 2025)
